From BindingDB's records for PubMed 39291025 (PI Health Sciences) come the findings set out here.

This assay can be described thus: Inhibition of cGAS in human THP-1 cells […] incubated for 18 hrs by Lucia luciferase reporter based counter assay. On the technique in general: In a reporter assay the amount or activity of a reporter protein is the signal.
By IC50 is commonly meant the concentration needed to halve the response being measured. For the compound `C[C@@H]1CN2CC[C@H]1n1c(nc3cc(Cl)ccc31)O[C@H]1C[C@@H](C(=O)O)N(C1)c1nc(nc3c1oc1ccccc13)CCOCCCC2=O`, the IC50 is more than 10 µM.
Regarding `C[C@H]1CN2CC[C@@H]1n1c(nc3cc(Cl)ccc31)O[C@H]1C[C@@H](C(=O)O)N(C1)c1nc(nc3c1oc1ccccc13)C(F)(F)OCCCCC2=O`, the IC50 is more than 10 µM.
The value for `CC(=O)[C@@H]1C[C@H]2CN1c1nc(nc3c1oc1ccccc13)CCOCCCC(=O)N1CC[C@@H]([C@@H](C)C1)n1c(nc3cc(Cl)ccc31)O2` was more than 10 µM; that for `C[C@@H]1CN2CC[C@H]1n1c(nc3ccccc31)O[C@H]1C[C@@H](C(=O)O)N(C1)c1nc(nc3c1oc1ccccc13)CCCCCOC2=O` was 8.2 µM; that for `C[C@H]1CN2CC[C@@H]1n1c(nc3cc(Cl)ccc31)O[C@H]1C[C@@H](C(=O)O)N(C1)c1nc(nc3c1oc1cc(Cl)ccc13)CCOCCCC2=O` was 9.5 µM.
The value for `C[C@H]1CN2CC[C@H]1n1c(nc3ccccc31)O[C@H]1C[C@@H](C(=O)O)N(C1)c1nc(nc3c1oc1ccccc13)C(F)(F)COCCCCC2=O` was 14 µM; that for `C[C@H]1CN2CC[C@@H]1n1c(nc3ccccc31)O[C@H]1C[C@@H](C(=O)O)N(C1)c1nc(nc3c1oc1ccccc13)C(F)(F)CCCCC(F)(F)C2=O` was 6.6 µM.
`Cc1cccc2c1nc1n2[C@@H]2CCN(C[C@H]2C)C(=O)CCCCCC(F)(F)c2nc(c3oc4ccccc4c3n2)N2C[C@H](C[C@H]2C(=O)O)O1`: half-maximal inhibition (IC50) was put at 6 µM.
Consider `C[C@H]1CN2CC[C@@H]1n1c(nc3ccccc31)O[C@H]1C[C@@H](C(=O)O)N(C1)c1nc(nc3c1oc1ccccc13)CCCCCN(C)C2=O`, for which half-maximal inhibition (IC50) was put at 7.3 µM.
For `C[C@H]1CN2CC[C@@H]1n1c(nc3ccccc31)O[C@H]1C[C@@H](C(=O)O)N(C1)c1nc(nc3c1oc1cc(Cl)ccc13)C(F)(F)CCCOCC2=O` the value was more than 10 µM.
